From patent US11130778B2, “CD73 inhibitors” (ORIC Pharmaceuticals, Inc., priority 2019, dated 2021)

Target: T1, CD73 (Homo sapiens, UniProt P21589)
T1 sequence (P21589 27-549): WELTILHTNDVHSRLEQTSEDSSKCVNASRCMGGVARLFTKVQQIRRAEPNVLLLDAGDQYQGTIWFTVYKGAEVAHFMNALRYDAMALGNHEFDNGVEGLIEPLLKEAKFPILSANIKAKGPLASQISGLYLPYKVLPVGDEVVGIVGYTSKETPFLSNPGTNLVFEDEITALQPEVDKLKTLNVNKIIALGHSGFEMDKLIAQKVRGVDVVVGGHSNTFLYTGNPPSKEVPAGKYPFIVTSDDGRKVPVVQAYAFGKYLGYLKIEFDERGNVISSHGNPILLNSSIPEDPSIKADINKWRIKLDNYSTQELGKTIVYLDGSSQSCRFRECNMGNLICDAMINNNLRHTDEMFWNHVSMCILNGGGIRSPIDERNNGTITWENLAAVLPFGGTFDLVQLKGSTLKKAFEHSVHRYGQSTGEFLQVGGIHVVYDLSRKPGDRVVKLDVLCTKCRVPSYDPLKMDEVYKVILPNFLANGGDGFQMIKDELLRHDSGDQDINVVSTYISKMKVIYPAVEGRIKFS
Assay: Biochemical assay of CD73 inhibition (Malachite Green)
Details: CD73 0.3208 nM, AMP 15 μM, Tris-HCl pH 7.4, Malachite Green absorbance readout; read-out: CD73_Biochem
Protocol: Example A1: Biochemical Assay
Assay Reaction Conditions
• Assay Volume: 70 μl • Reaction Volume: 50 μl • CD73: 0.3208 nM • AMP:15 μM • Assay Buffer: 2 5 mM Tris-HCL, pH 7.4, 0.01% Brij-35, 0.01% BSA, 5 mM MgCl2 Assay Procedure:
Made dose titration of testing compounds in assay buffer, 10 points 1/2 log titrations in duplicates starting at 100 μM.
Added 25 µl of CD73 to each well for a final concentration of […].
Incubated at RT for 15 min.
Added 25 µl of AMP to each well for a final concentration of 15 μM.
Incubated at RT for 10 min.
Added […] of Malachite Green Reagent A, incubate at RT for 10 min.
Added […] of Malachite Green Reagent B, incubate at RT for 45 min.
Read the Absorbance on Envision plate reader using excitation filter: Cy5 […].
The ability of the compounds disclosed herein to inhibit CD73 activity was quantified and the respective IC50 values were determined. Table 2 provides the biochemical IC50 values of compounds disclosed herein.

## COCC(Cc1nn[nH]n1)(OC[C@H]1O[C@@H](n2ncc3c(NC(C)C)nc(Cl)nc32)[C@H](O)[C@@H]1O)P(=O)(O)O (stereo partly drawn) [Example 23, (2-(((2R,3S,4R,5R)-5-(6-chloro-4-(isopropylamino)-1H-pyrazolo[3,4-d]pyrimidin-1-yl)-3,4-dihydroxytetrahydrofuran-2-yl)methoxy)-1-methoxy-3-(2H-tetrazol-5-yl)propan-2-yl)phosphonic acid]
  IC50: ≤ 10 nM

## O=P(O)(O)[C@@](CO)(COCc1nn[nH]n1)OC[C@H]1O[C@@H](n2ncc3c(NC4CCCC4)nc(Cl)nc32)[C@H](O)[C@@H]1O [Example 25, ((S)-1-((2H-tetrazol-5-yl)methoxy)-2-(((2R,3S,4R,5R)-5-(6-chloro-4-(cyclopentylamino)-1H-pyrazolo[3,4-d]pyrimidin-1-yl)-3,4-dihydroxytetrahydrofuran-2-yl)methoxy)-3-hydroxypropan-2-yl)phosphonic acid]
  IC50: ≤ 10 nM

## O=P(O)(O)C(CO)(Cc1nn[nH]n1)OC[C@H]1O[C@@H](n2ncc3c(NC4CCC4)nc(CO)nc32)[C@H](O)[C@@H]1O (stereo partly drawn) [Example 17, (2-(((2R,3S,4R,5R)-5-(4-(cyclobutylamino)-6-(hydroxymethyl)-1H-pyrazolo[3,4-d]pyrimidin-1-yl)-3,4-dihydroxytetrahydrofuran-2-yl)methoxy)-1-hydroxy-3-(2H-tetrazol-5-yl)propan-2-yl)phosphonic acid]
  IC50: ≤ 10 nM

## O=P(O)(O)[C@](CO)(COCc1nn[nH]n1)OC[C@H]1O[C@@H](n2ncc3c(NC4CCCC4)nc(Cl)nc32)[C@H](O)[C@@H]1O [Example 24, ((R)-1-((2H-tetrazol-5-yl)methoxy)-2-(((2R,3S,4R,5R)-5-(6-chloro-4-(cyclopentylamino)-1H-pyrazolo[3,4-d]pyrimidin-1-yl)-3,4-dihydroxytetrahydrofuran-2-yl)methoxy)-3-hydroxypropan-2-yl)phosphonic acid]
  IC50: ≤ 10 nM

## COCC(COCc1nn[nH]n1)(OC[C@H]1O[C@@H](n2ncc3c(N[C@@H]4CCc5ccccc54)nc(Cl)nc32)[C@H](O)[C@@H]1O)P(=O)(O)O (stereo partly drawn) [Example 56, (1-((2H-tetrazol-5-yl)methoxy)-2-(((2R,3S,4R,5R)-5-(6-chloro-4-(((R)-2,3-dihydro-1H-inden-1-yl)amino)-1H-pyrazolo[3,4-d]pyrimidin-1-yl)-3,4-dihydroxytetrahydrofuran-2-yl)methoxy)-3-methoxypropan-2-yl)phosphonic acid]
  IC50: ≤ 10 nM

## O=P(O)(O)[C@](CO)(COCc1nn[nH]n1)OC[C@H]1O[C@@H](n2ncc3c(NCC4CC4)nc(Cl)nc32)[C@H](O)[C@@H]1O [Example 21, ((R)-1-((2H-tetrazol-5-yl)methoxy)-2-(((2R,3S,4R,5R)-5-(6-chloro-4-((cyclopropylmethyl)amino)-1H-pyrazolo[3,4-d]pyrimidin-1-yl)-3,4-dihydroxytetrahydrofuran-2-yl)methoxy)-3-hydroxypropan-2-yl)phosphonic acid]
  IC50: ≤ 10 nM

## O=P(O)(O)[C@@](CO)(COCc1nn[nH]n1)OC[C@H]1O[C@@H](n2ncc3c(NCC4CC4)nc(Cl)nc32)[C@H](O)[C@@H]1O [Example 54, ((S)-1-((2H-tetrazol-5-yl)methoxy)-2-(((2R,3S,4R,5R)-5-(6-chloro-4-((cyclopropylmethyl)amino)-1H-pyrazolo[3,4-d]pyrimidin-1-yl)-3,4-dihydroxytetrahydrofuran-2-yl)methoxy)-3-hydroxypropan-2-yl)phosphonic acid]
  IC50: ≤ 10 nM

## CC(C)Nc1nc(Cl)nc2c1cnn2[C@@H]1O[C@H](CO[C@@](CO)(Cc2nn[nH]n2)P(=O)(O)O)[C@@H](O)[C@H]1O [Example 28, ((S)-2-(((2R,3S,4R,5R)-5-(6-chloro-4-(isopropylamino)-1H-pyrazolo[3,4-d]pyrimidin-1-yl)-3,4-dihydroxytetrahydrofuran-2-yl)methoxy)-1-hydroxy-3-(2H-tetrazol-5-yl)propan-2-yl)phosphonic acid]
  IC50: 10 to 100 nM

## O=P(O)(O)[C@@](CO)(COCc1nn[nH]n1)OC[C@H]1O[C@@H](n2ncc3c(NC4CCC4)nc(Cl)nc32)[C@H](O)[C@@H]1O [Example 55, ((S)-1-((2H-tetrazol-5-yl)methoxy)-2-(((2R,3S,4R,5R)-5-(6-chloro-4-(cyclobutylamino)-1H-pyrazolo[3,4-d]pyrimidin-1-yl)-3,4-dihydroxytetrahydrofuran-2-yl)methoxy)-3-hydroxypropan-2-yl)phosphonic acid]
  IC50: ≤ 10 nM

## COC[C@](COCc1nn[nH]n1)(OC[C@H]1O[C@@H](n2ncc3c(NC4CCCC4)nc(Cl)nc32)[C@H](O)[C@@H]1O)P(=O)(O)O [Example 38, ((S)-1-((2H-tetrazol-5-yl)methoxy)-2-(((2R,3S,4R,5R)-5-(6-chloro-4-(cyclopentamino)-1H-pyrazolo[3,4-d]pyrimidin-1-yl)-3,4-dihydroxytetrahydrofuran-2-yl)methoxy)-3-methoxypropan-2-yl)phosphonic acid]
  IC50: ≤ 10 nM

## O=P(O)(O)C(COCc1nnn[nH]1)(Cc1nnn[nH]1)OC[C@H]1O[C@@H](n2ncc3c(NC4CCCC4)nc(Cl)nc32)[C@H](O)[C@@H]1O (stereo in doubt) [Example 42, ((R)-1-((1H-tetrazol-5-yl)methoxy)-2-(((2R,3S,4R,5R)-5-(6-chloro-4-(cyclopentylamino)-1H-pyrazolo[3,4-d]pyrimidin-1-yl)-3,4-dihydroxytetrahydrofuran-2-yl)methoxy)-3-(1H-tetrazol-5-yl)propan-2-yl)phosphonic acid]
  IC50: ≤ 10 nM

## O=P(O)(O)[C@](CO)(Cc1nn[nH]n1)OC[C@H]1O[C@@H](n2ncc3c(N[C@@H]4CCc5ccccc54)nc(Cl)nc32)[C@H](O)[C@@H]1O [Example 47]
  IC50: 10 to 100 nM

## COC[C@@](CC(=O)NO)(OC[C@H]1O[C@@H](n2ncc3c(NC4CCCC4)nc(Cl)nc32)[C@H](O)[C@@H]1O)P(=O)(O)O [Example 7, ((S)-2-(((2R,3S,4R,5R)-5-(6-chloro-4-(cyclopentylamino)-1H-pyrazolo[3,4-d]pyrimidin-1-yl)-3,4-dihydroxytetrahydrofuran-2-yl)methoxy)-4-(hydroxyamino)-1-methoxy-4-oxobutan-2-yl)phosphonic acid]
  IC50: ≤ 10 nM

## O=P(O)(O)C(CO)(Cc1c[nH]nn1)OC[C@H]1O[C@@H](n2ncc3c(NC4CCCC4)nc(Cl)nc32)[C@H](O)[C@@H]1O (stereo partly drawn) [Example 13, (2-(((2R,3S,4R,5R)-5-(6-chloro-4-(cyclopentylamino)-1H-pyrazolo[3,4-d]pyrimidin-1-yl)-3,4-dihydroxytetrahydrofuran-2-yl)methoxy)-1-hydroxy-3-(1H-1,2,3-triazol-4-yl)propan-2-yl)phosphonic acid]
  IC50: 10 to 100 nM

## O=P(O)(O)C(CO)(OC[C@H]1O[C@@H](n2ncc3c(NC4CCCC4)nc(Cl)nc32)[C@H](O)[C@@H]1O)c1nn[nH]n1 (stereo partly drawn) [Example 49, (1-(((2R,3S,4R,5R)-5-(6-chloro-4-(cyclopentylamino)-1H-pyrazolo[3,4-d]pyrimidin-1-yl)-3,4-dihydroxytetrahydrofuran-2-yl)methoxy)-2-hydroxy-1-(2H-tetrazol-5-yl)ethyl)phosphonic acid]
  IC50: 10 to 100 nM

## O=P(O)(O)C(COCc1nnn[nH]1)(COCC1CC1)OC[C@H]1O[C@@H](n2ncc3c(NC4CCCC4)nc(Cl)nc32)[C@H](O)[C@@H]1O (stereo in doubt) [Example 44, ((R)-1-((1H-tetrazol-5-yl)methoxy)-2-(((2R,3S,4R,5R)-5-(6-chloro-4-(cyclopentylamino)-1H-pyrazolo[3,4-d]pyrimidin-1-yl)-3,4-dihydroxytetrahydrofuran-2-yl)methoxy)-3-(cyclopropylmethoxy)propan-2-yl)phosphonic acid]
  IC50: ≤ 10 nM

## COC[C@@](Cc1nn[nH]n1)(OC[C@H]1O[C@@H](n2ncc3c(NC(C)C)nc(Cl)nc32)[C@H](O)[C@@H]1O)P(=O)(O)O [Example 30, ((S)-2-(((2R,3S,4R,5R)-5-(6-chloro-4-(isopropylamino)-1H-pyrazolo[3,4-d]pyrimidin-1-yl)-3,4-dihydroxytetrahydrofuran-2-yl)methoxy)-1-methoxy-3-(2H-tetrazol-5-yl)propan-2-yl)phosphonic acid]
  IC50: 10 to 100 nM

## O=P(O)(O)[C@@](CO)(Cc1nn[nH]n1)OC[C@H]1O[C@@H](n2ncc3c(NCC4CCC4)nc(Cl)nc32)[C@H](O)[C@@H]1O [Example 20, ((R)-2-(((2R,3S,4R,5R)-5-(6-chloro-4-((cyclobutylmethyl)amino)-1H-pyrazolo[3,4-d]pyrimidin-1-yl)-3,4-dihydroxytetrahydrofuran-2-yl)methoxy)-1-hydroxy-3-(2H-tetrazol-5-yl)propan-2-yl)phosphonic acid]
  IC50: 10 to 100 nM
